Values of other authors as cited in patent US20250195352A1, “LIPID FORMULATIONS CONTAINING BIOACTIVE FATTY ACIDS AND OTHER BIOACTIVE AGENTS” (Sciadonics, Inc., priority 2022, published 2025).

Legend:
PPAR receptors = conditions: unmetabolized SA; Berger 2002
[1] = test system: cultured human skin keratinocytes; conditions: purified SA taken up by cultured human skin keratinocytes; Berger 2002

**Q.** Which results are given for `CCCCCC=CCC=CCCCCC=CCCCC(=O)O` [SA, 5,11,14-eicosatrienoic acid]?
**A.** binding to PPAR receptors (PPAR receptors): does not bind; ARA levels [1]: reduced; prostaglandin E2 (PGE2) levels [1]: reduced
